The subject of data set [1] is Plasmodium falciparum. As to the kind of experiment: NOVARTIS: Inhibition of Plasmodium falciparum 3D7 (drug-susceptible) proliferation in erythrocyte-based infection assay. The conditions noted are these: Plasmodium falciparum, 3D7. Format: functional, organism-based.
Data set [2] deals with Plasmodium falciparum. As to the kind of experiment: NOVARTIS: Inhibition of Plasmodium falciparum W2 (drug-resistant) proliferation in erythrocyte-based infection assay. The format is functional, organism-based. The settings on record: Plasmodium falciparum, W2; read-out: EC50.
Data set [3] can be described thus: NOVARTIS: Cytotoxicity against human hepatocellular carcinoma cell line (Huh7). Format: toxicity, cell-based, Huh-7. The conditions noted are these: Huh7 cells (hepatocellular carcinoma cell line).

pEC50: −log10 of the molar value.

With `NNc1ncnc2[nH]cnc12`, the values for the negative-log EC50 (pEC50) with Plasmodium falciparum [1] and with Plasmodium falciparum [2] were 6.52 and 6.18, respectively. Further, in data set [3], the half-maximal cytotoxic concentration (CC50) (usually the concentration that lowers cell viability or growth by half) was over 10 µM.

For the compound `CC(=O)Nc1c(C)cc(Cl)cc1Cl`, the pEC50 (as a rule, the EC50 on a negative log10 scale, so that one unit is a factor of ten) in the data set with Plasmodium falciparum [1] is 5.84; in the data set with Plasmodium falciparum [2] it was 6.18. This compound also gave a CC50 in data set [3] of over 10 µM.

Take `COc1ccc(OC)c(-c2ccc(O)c(CNCC(C)c3ccccc3)c2)c1` (stereo unspecified): the pEC50 in the data set with Plasmodium falciparum [1] was 6.02; in the data set with Plasmodium falciparum [2] it was 6.17. The compound further gave a 50% cytotoxic concentration (CC50) in data set [3] of over 10 µM.

Take `COc1ccc([N+](=O)[O-])cc1N(CC1CO1)S(=O)(=O)c1ccc(C)cc1` (stereo unspecified): the pEC50 in the data set on Plasmodium falciparum [1] is under 4.90; in the data set on Plasmodium falciparum [2] it was 5.18. In data set [3], this compound gave a half-maximal cytotoxic concentration (CC50) of over 100 µM.

Consider `Cc1cccc(Nc2nc(NCc3ccco3)c3ccccc3n2)c1`, for which the pEC50 in the data set on Plasmodium falciparum [1] is 6.58; in the data set with Plasmodium falciparum [2] it was 6.49. The same compound yielded a half-maximal cytotoxic concentration (CC50) in data set [3] of 4.93 µM.

For `COc1ccc(NC(=O)NCc2cccn2Cc2ccc(F)cc2)cc1OC`, the negative-log EC50 (pEC50) in the data set with Plasmodium falciparum [1] is 5.97; in the data set with Plasmodium falciparum [2], 6.18. Moreover, the 50% cytotoxic concentration (CC50) in data set [3] is over 10 µM.

Turning to `CCCCCCCCN[C@@H](C)[C@@H](O)c1ccc(SC(C)C)cc1`, the negative logarithm of the EC50 (pEC50) with Plasmodium falciparum [1] is under 5.90; in the data set with Plasmodium falciparum [2], 6.38. Also, in data set [3], the CC50 was over 6.25 µM.

Regarding `CCCN(CCC)C(=O)c1c[nH]c2ccc(S(=O)(=O)N(C)c3ccc(F)cc3)cc2c1=O`, the negative-log EC50 (pEC50) is under 4.90 in the data set with Plasmodium falciparum [1] and 5.18 with Plasmodium falciparum [2]. In data set [3], the CC50 is over 100 µM.

On to `CC(C)(C)CC(C)(C)Nc1c(-c2ccccc2OC(=O)c2ccc(Br)cc2)nc2ccccn12`, for which the values for the pEC50 in the data set on Plasmodium falciparum [1] and with Plasmodium falciparum [2] were 5.88 and 7.02, respectively. Besides, the CC50 in data set [3] is over 1.43 µM.

Turning to `CC(O)c1ccc(NC(=O)c2cnn3c2NC(c2ccco2)CC3C(F)(F)F)cc1` (stereo unspecified), the negative-log EC50 (pEC50) in the data set with Plasmodium falciparum [1] is under 5.90; with Plasmodium falciparum [2], under 6.17. This compound yielded a CC50 in data set [3] of over 10 µM.

Regarding `COc1ccc(N2C(=O)c3cccnc3C2=O)cc1`, the values for the pEC50 in the data set with Plasmodium falciparum [1] and in the data set with Plasmodium falciparum [2] were 5.70 and 6.18, respectively. In data set [3], this compound had a CC50 of over 10 µM.

As to `CCC1=NN2C(=N)/C(=C/c3ccc(OCCOc4ccc(Br)cc4)c(OC)c3)C(=O)N=C2S1`, the negative logarithm of the EC50 (pEC50) in the data set with Plasmodium falciparum [1] is under 5.90; with Plasmodium falciparum [2] it was under 6.17. The same compound showed a CC50 in data set [3] of over 10 µM.

Turning to `O=C1Nc2ccccc2C1=NN=Cc1ccc(-c2ccccc2[N+](=O)[O-])o1`, the figures for the pEC50 in the data set on Plasmodium falciparum [1] and in the data set with Plasmodium falciparum [2] were under 4.90 and 5.17, respectively. In addition, in data set [3], the CC50 was over 100 µM.

On to `COc1cccc(CN2CCN(C3CCCC(C)C3)CC2)c1OC` (stereo unspecified), for which the figures for the negative logarithm of the EC50 (pEC50) in the data set with Plasmodium falciparum [1] and with Plasmodium falciparum [2] were under 4.90 and under 5.17, respectively. For the same compound, the 50% cytotoxic concentration (CC50) in data set [3] was over 100 µM.

In the case of `CC1CCN(S(=O)(=O)c2ccc(C(=O)Nc3sc4c(c3C(N)=O)CCN(C)C4)cc2)CC1`, the results for the negative logarithm of the EC50 (pEC50) with Plasmodium falciparum [1] and in the data set on Plasmodium falciparum [2] were under 5.90 and under 6.18, respectively. Besides, in data set [3], the CC50 was over 10 µM.

As for `COc1ccc(C(=NO)C2CC2c2ccc(Cl)cc2)cc1` (stereo unspecified), the pEC50 was 6.13 in the data set with Plasmodium falciparum [1] and 6.18 with Plasmodium falciparum [2]. The compound also displayed a CC50 in data set [3] of over 10 µM.

Take `CCCCCN(C(=O)c1cccc(C(F)(F)F)c1)C(CC)c1nc2ccccc2c(=O)n1-c1ccccc1OC` (stereo unspecified): the pEC50 is 6.14 in the data set with Plasmodium falciparum [1] and 6.17 with Plasmodium falciparum [2]. The CC50 in data set [3] was over 10 µM.

On to `Cc1cccc(NC(=O)N2CCN(C(=O)c3nc(-c4ccccc4)nc(C)c3C(=O)OC(C)C)CC2C)c1C` (stereo unspecified), for which the results for the pEC50 in the data set with Plasmodium falciparum [1] and in the data set on Plasmodium falciparum [2] were 6.29 and 6.42, respectively. The CC50 in data set [3] was over 5.76 µM.

With `COc1ccc(C(=O)C[n+]2ccc(N)c(C)c2C)cc1`, the negative-log EC50 (pEC50) in the data set with Plasmodium falciparum [1] was 6.36; in the data set with Plasmodium falciparum [2], under 6.18. The same compound returned a CC50 in data set [3] of over 10 µM.

As to `CCC(=O)N1c2ccccc2NC2=C(C(=O)CC(C)(C)C2)C1c1ccc2c(c1)OCO2` (stereo unspecified), the values for the negative logarithm of the EC50 (pEC50) in the data set on Plasmodium falciparum [1] and in the data set on Plasmodium falciparum [2] were 5.45 and 5.17, respectively. For the same compound, in data set [3], the CC50 was over 100 µM.

As for `CCOc1cccc2c1N(C(=O)c1ccc(C)cc1)C(C)(C)C1=C2C2(SC(C(=O)OC)=C(C(=O)OC)S2)C(C(=O)OC)=C(C(=O)OC)S1`, the negative logarithm of the EC50 (pEC50) with Plasmodium falciparum [1] was 5.97; in the data set with Plasmodium falciparum [2], 6.18. In addition, the 50% cytotoxic concentration (CC50) in data set [3] is over 10 µM.

For the compound `CC(C)(C)NS(=O)(=O)c1cc(Cl)ccc1Cl`, the results for the negative-log EC50 (pEC50) in the data set with Plasmodium falciparum [1] and in the data set on Plasmodium falciparum [2] were under 5.90 and 6.14, respectively. The same compound displayed a CC50 in data set [3] of over 10.9 µM.

The values are drawn from ChEMBL document CHEMBL1156829 (Proc Natl Acad Sci U S A, 2008).
